Patent publication US10858342B2, “Bicyclic imidazole derivatives useful for the treatment of renal diseases, cardiovascular diseases and fibrotic diseases” (Boehringer Ingelheim International GmbH, priority 2016, dated 2020)
Where two headings read alike, the source gives them in different places.

What was measured:
Format in all cases: biochemical, cynomolgus monkey
[1] = test system: aldosterone synthase (CYP11B2); assay: Inhibition of aldosterone synthase (cynomolgus adrenal mitochondria, aldosterone by mass spectrometry); conditions: selectivity for aldosterone synthase inhibition over cortisol synthase (CYP11B1) inhibition, fold
Description: (§1) The aldosterone synthase and cortisol synthase inhibition assays employ cynomolgus adrenal gland mitochondria as the source of aldosterone synthase (CYP11B2) and cortisol synthase (CYP11B1). […] One unit of CYP11B2 and CYP11B1 activity in these preparations is defined as the amount of enzyme that generates 1 pmol of product in one hour under the conditions described.
(§2) The compounds of the invention may be evaluated for aldosterone synthase inhibition by the following assay:
(§3) Assays are performed in 96-well format in a final volume of 60 microL/well, containing 100 mM potassium phosphate, pH 7.4, 1% (v/v) DMSO, and additionally, 2 μM of corticosterone and 50 units of CYP11B2 activity. Reactions are started by the addition of NADPH to 1 mM and allowed to proceed for 90 minutes at 37° C. Reactions are terminated by the addition of 60 μL of MeCN containing an internal standard for mass spectrometry. One hundred microliters are then transferred to a glass filter plate and centrifuged at 570×g for 5 minutes and the filtrate is collected. Reaction product aldosterone is quantified by mass spectrometry. To determine the assay blank value (0% activity), NADPH is omitted from some reactions.
(§4) Dose dependent inhibition is quantified by the inclusion of compound at various concentrations. Maximum activity (100%) is defined by reactions containing NADPH, but without compound.

[2] = molecular target: aldosterone synthase (CYP11B2) (Macaca fascicularis, UniProt A0A2K5UPL9); assay: as above; conditions: 2 μM corticosterone substrate, 50 units CYP11B2, 90 min, 37° C.; read-out: Aldosterone Inhibition IC50
Sequence of aldosterone synthase (CYP11B2) (Macaca fascicularis, UniProt A0A2K5UPL9) (A0A2K5UPL9 1-503): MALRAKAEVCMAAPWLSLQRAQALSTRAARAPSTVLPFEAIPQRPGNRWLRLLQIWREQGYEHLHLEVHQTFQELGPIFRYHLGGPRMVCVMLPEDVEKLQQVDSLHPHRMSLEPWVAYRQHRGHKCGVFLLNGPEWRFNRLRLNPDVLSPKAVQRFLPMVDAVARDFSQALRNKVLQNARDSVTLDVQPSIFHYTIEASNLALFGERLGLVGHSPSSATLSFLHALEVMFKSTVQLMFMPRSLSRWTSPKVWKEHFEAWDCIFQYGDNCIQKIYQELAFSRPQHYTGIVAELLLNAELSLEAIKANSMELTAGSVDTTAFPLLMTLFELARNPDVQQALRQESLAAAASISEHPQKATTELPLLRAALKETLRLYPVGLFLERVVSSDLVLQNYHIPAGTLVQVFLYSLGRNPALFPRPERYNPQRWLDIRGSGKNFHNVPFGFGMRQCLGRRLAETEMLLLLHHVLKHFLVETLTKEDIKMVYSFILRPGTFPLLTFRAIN
Description: as §1, §2, §3, §4

[3] = molecular target: cortisol synthase (CYP11B1) (Macaca fascicularis, UniProt A0A2K5ULY1); assay: Inhibition of cortisol synthesis (cynomolgus adrenal mitochondria, cortisol by mass spectrometry)
Description: The aldosterone synthase and cortisol synthase inhibition assays employ cynomolgus adrenal gland mitochondria as the source of aldosterone synthase (CYP11B2) and cortisol synthase (CYP11B1). Mitochondria are prepared from frozen cynomolgus monkey adrenal glands according to Method A described in by J. D. McGarry et al. (Biochem. J., 1983, 214, 21-28), with a final resuspension in the AT buffer described in R. Yamaguchi et al. (Cell Death and Differentiation, 2007, 14, 616-624), frozen as aliquots in liquid nitrogen and stored at −80° C. until use. One unit of CYP11B2 and CYP11B1 activity in these preparations is defined as the amount of enzyme that generates 1 pmol of product in one hour under the conditions described.
as §3
Dose dependent inhibition is quantified by the inclusion of compound at various concentrations. Maximum activity (100%) is defined by reactions containing NADPH, but without compound. Activities at each concentration are expressed as a percentage of the maximum activity (y-axis) and plotted against concentration of compound (x-axis) and the concentration corresponding to 50% activity (IC50) determined using the XLFit curve-fitting program using a 4-parameter logistic model.
Assays are performed as for aldosterone synthase except for the use of 150 units of CYP11B1, 11-deoxycortisol as substrate and cortisol measured as product.

[4] = 11-deoxycortisol substrate, 150 units CYP11B1; read-out: Cortisol Inhibition IC50
[5] = read-out: Cortisol Inhibition IC50; 11-deoxycortisol substrate, 150 units CYP11B1

Q: Which results are given for CC1(C)CC(=O)c2c(ncn2-c2cccc(Cl)c2Cl)C1 [C-ABF, 3-(2,3-Dichloro-phenyl)-6,6-dimethyl-3,5,6,7-tetrahydro-benzoimidazol-4-one]?
A: Selectivity [1]: 160; IC50 [2]: 3.8 nM; IC50 [3, 4]: 610 nM

Q: Which results are given for CC1(C)CC(=O)c2c(ncn2-c2ccc(C#N)c(Cl)c2)C1 [C-ABE, 2-Chloro-4-(5,5-dimethyl-7-oxo-4,5,6,7-tetrahydro-benzoimidazol-1-yl)-benzonitrile]?
A: Selectivity [1]: 79; IC50 [2]: 1.3 nM; IC50 [3, 5]: 110 nM

Q: For CN(C)c1ccc(-n2cnc3c2C(=O)CC(C)(C)C3)cc1 [C-ABO, 3-(4-Dimethylamino-phenyl)-6,6-dimethyl-3,5,6,7-tetrahydro-benzoimidazol-4-one], which Selectivity [1] is on record?
A: 270

Q: And the IC50 [2]?
A: 130 nM

Q: And the IC50 [3, 4]?
A: 35000 nM

Q: Which results are given for COC(=O)c1ccc(Cn2cnc3c2C(=O)CC(C)(C)C3)cc1 [C-ACZ, 4-(5,5-Dimethyl-7-oxo-4,5,6,7-tetrahydro-benzoimidazol-1-ylmethyl)-benzoic acid methyl ester]?
A: Selectivity [1]: 41; IC50 [2]: 34 nM; IC50 [3, 4]: 1400 nM

Q: For CC1(C)CC(=O)c2c(ncn2-c2ccc(F)cc2)C1 [C-ABP, 3-(4-Fluoro-phenyl)-6,6-dimethyl-3,5,6,7-tetrahydro-benzoimidazol-4-one], which Selectivity [1] is on record?
A: 52

Q: What about the IC50 [2] of the same compound?
A: 21 nM

Q: What about the IC50 [3, 4] of the same compound?
A: 1100 nM

Q: Which results are given for N#Cc1ccc(-n2cnc3c2C(=O)CCC3)cc1 [C-AAL, 4-(7-Oxo-4,5,6,7-tetrahydro-benzoimidazol-1-yl)-benzonitrile]?
A: Selectivity [1]: 250; IC50 [2]: 19 nM; IC50 [3, 4]: 4600 nM

Q: Which Selectivity [1] does the source give for CN1Cc2cc(-n3cnc4c3C(=O)CCC4)ccc2CC1=O [C-AAC, 2-Methyl-7-(7-oxo-4,5,6,7-tetrahydro-benzoimidazol-1-yl)-1,4-dihydro-2H-isoquinolin-3-one] here?
A: 42

Q: What about the IC50 [2] of the same compound?
A: 720 nM

Q: What about the IC50 [3, 4] of the same compound?
A: > 30000 nM

Q: How did the Selectivity [1] turn out when CC(=O)N1CCCc2cc(-n3cnc4c3C(=O)CCC4)ccc21 [C-AAF, 3-(1-Acetyl-1,2,3,4-tetrahydro-quinolin-6-yl)-3,5,6,7-tetrahydro-benzoimidazol-4-one] was run?
A: 270

Q: What about the IC50 [2] of the same compound?
A: 37 nM

Q: And the IC50 [3, 4]?
A: 10000 nM

Q: What does the source list for CC1(C)CC(=O)c2c(ncn2Cc2ccc3[nH]ncc3c2)C1 [C-ACY, 3-(1H-Indazol-5-ylmethyl)-6,6-dimethyl-3,5,6,7-tetrahydro-benzoimidazol-4-one]?
A: Selectivity [1]: 15; IC50 [2]: 110 nM; IC50 [3, 4]: 1700 nM

Q: How did the Selectivity [1] turn out when NC(=O)N1CCCc2cc(-n3cnc4c3C(=O)CCC4)ccc21 [C-ADZ, 6-(7-Oxo-4,5,6,7-tetrahydro-benzoimidazol-1-yl)-3,4-dihydro-2H-quinoline-1-carboxylic acid amide] was run?
A: 300

Q: And the IC50 [2]?
A: 99 nM

Q: What about the IC50 [3, 4] of the same compound?
A: > 30000 nM

Q: For CN1C(=O)CCc2cc(-n3cnc4c3C(=O)CC3(CCC3)C4)ccc21 [C-AAV, 3-(1-Methyl-2-oxo-3,4-dihydroquinolin-6-yl)spiro[5,7-dihydrobenzimidazole-6,1′-cyclobutane]-4-one], which Selectivity [1] is on record?
A: 300

Q: What about the IC50 [2] of the same compound?
A: 47 nM

Q: What about the IC50 [3, 4] of the same compound?
A: 14000 nM

Q: For CC1(C)CC(=O)c2c(ncn2Cc2ccc(-n3cncn3)cc2)C1 [C-ADB, 6,6-Dimethyl-3-(4-[1,2,4]triazol-1-yl-benzyl)-3,5,6,7-tetrahydro-benzoimidazol-4-one], which Selectivity [1] is on record?
A: 14

Q: And the IC50 [2]?
A: 540 nM

Q: And the IC50 [3, 4]?
A: 7400 nM

Q: CC1(C)CC(=O)c2c(ncn2Cc2ccc(C(=O)NCCS(C)(=O)=O)cc2)C1 [C-ADU, 4-(5,5-Dimethyl-7-oxo-4,5,6,7-tetrahydro-benzoimidazol-1-ylmethyl)-N-(2-methanesulfonyl-ethyl)-benzamide] was tested. Which Selectivity [1] did it give?
A: 30

Q: And the IC50 [2]?
A: 210 nM

Q: And the IC50 [3, 4]?
A: 6200 nM

Q: CC1(C)CC(=O)c2c(ncn2C2CCCCc3ccccc32)C1 (stereo not drawn) [C-ACW, 6,6-Dimethyl-3-(6,7,8,9-tetrahydro-5H-benzocyclohepten-5-yl)-3,5,6,7-tetrahydro-benzoimidazol-4-one] was tested. Which Selectivity [1] did it give?
A: 300

Q: And the IC50 [2]?
A: 24 nM

Q: And the IC50 [3, 4]?
A: 7200 nM

Q: What does the source list for O=C1CCCc2ncn(-c3ccc4c(c3)OCCO4)c21 [C-AAI, 3-(2,3-Dihydro-benzo[1,4]dioxin-6-yl)-3,5,6,7-tetrahydro-benzoimidazol-4-one]?
A: Selectivity [1]: 180; IC50 [2]: 160 nM; IC50 [3, 4]: > 30000 nM

Q: For CC1(C)CC(=O)c2c(ncn2-c2cc(Cl)cc(Cl)c2)C1 [C-ABH, 3-(3,5-Dichloro-phenyl)-6,6-dimethyl-3,5,6,7-tetrahydro-benzoimidazol-4-one], which Selectivity [1] is on record?
A: 240

Q: And the IC50 [2]?
A: 22 nM

Q: And the IC50 [3, 4]?
A: 5200 nM

Q: Which results are given for Cc1cc(-n2cnc3c2C(=O)CC(C)(C)C3)ccc1C#N [C-ABV, 4-(5,5-Dimethyl-7-oxo-4,5,6,7-tetrahydro-benzoimidazol-1-yl)-2-methyl-benzonitrile]?
A: Selectivity [1]: 20; IC50 [2]: 6.6 nM; IC50 [3, 4]: 130 nM

Q: Which results are given for CC1(C)CC(=O)c2c(ncn2-c2ccc(F)c(Cl)c2)C1 [C-ABI, 3-(3-Chloro-4-fluoro-phenyl)-6,6-dimethyl-3,5,6,7-tetrahydro-benzoimidazol-4-one]?
A: Selectivity [1]: 190; IC50 [2]: 4.8 nM; IC50 [3, 4]: 910 nM

Q: What does the source list for CC(=O)c1ccc(-n2cnc3c2C(=O)CC(C)(C)C3)cc1 [C-ABL, 3-(4-Acetyl-phenyl)-6,6-dimethyl-3,5,6,7-tetrahydro-benzoimidazol-4-one]?
A: Selectivity [1]: 150; IC50 [2]: 59 nM; IC50 [3, 4]: 8800 nM

Q: Which results are given for C[C@@H]1Cc2cc(-n3cnc4c3C(=O)CCC4)ccc2O1 (stereo in doubt) [C-AAZ-A, 3-(2-Methyl-2,3-dihydro-benzofuran-5-yl)-3,5,6,7-tetrahydro-benzoimidazol-4-one]?
A: Selectivity [1]: 100; IC50 [2]: 300 nM; IC50 [3, 4]: > 30000 nM

Q: How did the Selectivity [1] turn out when CN1C(=O)CCc2cc(-n3cnc4c3C(=O)CCC4)ccc21 [C-ACD, 1-Methyl-6-(7-oxo-4,5,6,7-tetrahydro-benzoimidazol-1-yl)-3,4-dihydro-1H-quinolin-2-one] was run?
A: 920

Q: What about the IC50 [2] of the same compound?
A: 60 nM

Q: What about the IC50 [3, 4] of the same compound?
A: 55000 nM

Q: Which Selectivity [1] does the source give for N#Cc1ccc(-n2cnc3c2C(=O)C[C@@H](C(N)=O)C3)cc1Cl [C-AEB-A, (S)-1-(3-Chloro-4-cyano-phenyl)-7-oxo-4,5,6,7-tetrahydro-1H-benzoimidazole-5-carboxylic acid amide] here?
A: 51

Q: And the IC50 [2]?
A: 590 nM

Q: And the IC50 [3, 5]?
A: > 30000 nM

Q: CN1CCOc2cc(Cn3cnc4c3C(=O)CC(C)(C)C4)cnc21 [C-ADD, 6,6-Dimethyl-3-(4-methyl-3,4-dihydro-2H-pyrido[3,2-b][1,4]oxazin-7-ylmethyl)-3,5,6,7-tetrahydro-benzoimidazol-4-one] was tested. Which Selectivity [1] did it give?
A: 20

Q: What about the IC50 [2] of the same compound?
A: 540 nM

Q: What about the IC50 [3, 4] of the same compound?
A: 11000 nM

Q: Which results are given for COc1ccc2c(c1)CCC(n1cnc3c1C(=O)CC(C)(C)C3)C2 (stereo not drawn) [C-ACN, 3-(6-Methoxy-1,2,3,4-tetrahydro-naphthalen-2-yl)-6,6-dimethyl-3,5,6,7-tetrahydro-benzoimidazol-4-one]?
A: Selectivity [1]: 460; IC50 [2]: 24 nM; IC50 [3, 4]: 11000 nM

Q: Which results are given for CCO[C@H]1C[C@H](n2cnc3c2C(=O)CC(C)(C)C3)C12CCC2 (relative stereo) [C-ADM, 3-((1S,3S)-3-Ethoxy-spiro[3.3]hept-1-yl)-6,6-dimethyl-3,5,6,7-tetrahydro-benzoimidazol-4-one]?
A: Selectivity [1]: 420; IC50 [2]: 72 nM; IC50 [3, 4]: > 30000 nM

Q: Which Selectivity [1] does the source give for CN1C(=O)CCc2cc(-n3cnc4c3C(=O)CCC4)cnc21 [C-AAD, 1-Methyl-6-(7-oxo-4,5,6,7-tetrahydro-benzoimidazol-1-yl)-3,4-dihydro-1H-[1,8]naphthyridin-2-one] here?
A: 200

Q: What about the IC50 [2] of the same compound?
A: 150 nM

Q: And the IC50 [3, 4]?
A: > 30000 nM

Q: Which Selectivity [1] does the source give for CC1(C)CC(=O)c2c(ncn2Cc2ccccc2)C1 [C-ADR, 3-Benzyl-6,6-dimethyl-3,5,6,7-tetrahydro-benzoimidazol-4-one] here?
A: 97

Q: What about the IC50 [2] of the same compound?
A: 97 nM

Q: What about the IC50 [3, 4] of the same compound?
A: 9400 nM

Q: How did the Selectivity [1] turn out when CC1CCc2ncn(-c3ccc(C#N)cc3)c2C1=O (stereo not drawn) [C-ADY, 4-(6-Methyl-7-oxo-4,5,6,7-tetrahydro-benzoimidazol-1-yl)-benzonitrile] was run?
A: 152

Q: And the IC50 [2]?
A: 24 nM

Q: What about the IC50 [3, 4] of the same compound?
A: 3640 nM
